In a melting point compilation (Tetko et al.; mined from patent text by program, amines drawn as free bases though some values may be those of a salt) one finds melting point data, which are given here for 88 molecules.

Each structure is given as a SMILES string. A value given as a limit tells only on which side of the number the result lay.

Consider `Cc1ccc2c(c1)cc(Cc1ccc(C(=O)O)cc1)n2S(=O)(=O)c1cccc(C(C)(C)C)c1`, for which the melting point worked out at 161 °C.

Turning to `O=C(Cc1ccc(Cl)cc1)c1ccc(OC(F)F)cc1`, the melting point is 74 to 76 °C.

Take `O=C(O)CCc1cnoc1-c1ccc(C(F)(F)F)cc1`: the melting point fell in the range of 171 to 172 °C.

In turn, `O=C(Nc1ccc(C(=O)N2Cc3ccccc3Cc3ccccc32)cc1)c1ccccc1` yielded a melting point of 219 to 221 °C.

In turn, `COC(=O)CCC#Cc1ccc(O)c(CCC(=O)OC)n1` gave a melting point of 119 to 121 °C.

In the case of `Cc1onc(-c2ccccc2)c1C(=O)N(CCN(C)C)c1ccccc1`, the melting point lay within 88 to 89 °C.

`Cc1c(C(=O)Nc2ccc(N3CCC(N4CCCCC4)CC3)c(C#N)c2)cnn1-c1ccc(Cl)cc1`: the melting point was determined as 252 °C.

As to `O=C(NC1N=C(c2ccccc2F)c2ccccc2NC1=O)c1ccccc1Cl` (racemic), the melting point came out at 224 °C.

Molecule `Cc1ccc(S(=O)(=O)NC(Cc2ccccc2)C(=O)NCCCCC(C(=O)O)N(CC(C)C)S(=O)(=O)c2ccc(C)cc2)cc1` (stereo not drawn) returned a melting point of 301 to 306 °C.

Take `CCN(C)c1ccc(C(=O)c2ccc(N(C)CC)cc2)cc1`: the melting point was 122 to 124 °C.

For `NS(=O)(=O)c1cc(C(=O)O)cc(NCCCC(=O)O)c1Oc1ccccc1`, the melting point fell in the range of 240 to 241 °C.

`CC(C)CC(=O)C(=O)OCc1ccccc1` came in with a melting point of 98 to 100 °C.

`CC(C)n1cc(I)c2c(Cl)ncnc21` returned a melting point of 116 to 118 °C.

In the case of `CNC(=O)CCC(C)=S`, the melting point was 67 to 70 °C.

Molecule `Cc1ccc(O)cc1NC(=O)CC12CC3CC(CC(C3)C1)C2` came in with a melting point of 255 to 256 °C.

In turn, `CC(C)c1cc(CC#N)c(C(C)C)cc1C#N` showed a melting point of 88 to 89 °C.

For the molecule `O=C(CC(=O)c1ccc(-c2ccccc2)cc1)Nc1ccc(OCCN2CCCC2)c(C(=O)O)c1`, the melting point was 236 to 240 °C.

The molecule `CN1OC(COCc2ccc(Cl)cc2)CC1(Cn1ccnc1)c1ccc(Cl)cc1` (stereo not drawn) came in with a melting point of 97 to 100 °C.

Take `O=C(Nc1nccs1)C(CC1CCCC1)c1ccc(Cl)c(Cl)c1` (stereo not drawn): the melting point is 120 to 122 °C.

As to `CCCn1c(=O)c2ccc(NC(=O)CC3CCCC3)cc2n1Cc1ccc(C(=O)OC)cc1OC`, the melting point is 74.5 to 77 °C.

`COCCO[C@@H]1c2ccn3c(Cl)c(C)nc3c2N(C(C)=O)[C@H](c2ccccc2)[C@H]1OC(=O)C(C)(C)C` showed a melting point of 145 to 147 °C.

Molecule `COc1cc(CN2CCN(c3ccccc3C)CC2)cc(OC)c1OC` gave a melting point of 89 °C.

`O=C1O[C@@H](Cn2ccnn2)CN1c1ccc(-c2ccc(C3=NOC(CNCCc4ccncc4)C3)nc2)c(F)c1` (stereo partly drawn) came in with a melting point of 181 °C.

Molecule `Nc1cc(NC(=O)Nc2ccccc2)ccn1` came in with a melting point of over 290 °C.

Molecule `CCOC(=O)C(=CNC1CC1)C(=O)c1cc(F)c(Cl)nc1Cl` yielded a melting point of 129 to 130 °C.

In turn, `Cc1cccc(-c2sc(N)nc2-c2ccc3c(c2)OCO3)n1` displayed a melting point of 170 to 172 °C.

Turning to `O=CNCCOc1cccc2c1c1ccccc1n2Cc1ccccc1`, the melting point lay in the range of 161 to 162 °C.

`Nc1cc(O)nc(SCc2c(F)cccc2F)n1` yielded a melting point of 245 to 246 °C.

In turn, `CCCCCCCC(SC)S(=O)(=O)c1ccc(C)cc1` (stereo not drawn) returned a melting point of 65 to 66 °C.

Regarding `CC1CN(c2n[nH]c(-c3ccc(Cl)cc3)c2-c2ccncc2)CCN1` (stereo not drawn), the melting point was 235 to 237 °C.

Regarding `CON=Cc1ncn2c1CN(C)C(=O)c1c(Cl)cccc1-2`, the melting point was in the range of 173 to 174 °C.

`O=C(c1cc2cc(Br)ccc2o1)C12CC3CC(CC(C3)C1)C2` showed a melting point of 115 to 117 °C.

`Nc1nnc(N2CCN(CCOc3ccc(Br)cc3)CC2)[nH]1` came in with a melting point of 166 to 167 °C.

`O=C(CCCCCCNS(=O)(=O)c1ccc(C(=O)Nc2ccc(Cl)c(-c3ccccn3)c2)c(Cl)c1)NO` registered a melting point of 159 °C.

On to `CCOC(=O)NC(=S)CNc1ccc(C(=O)OC)c(S(=O)(=O)NC(C)(C)C)c1`, for which the melting point was 110 °C.

In the case of `CS(=O)(=O)c1cc(OCC(O)CNC2CCC(c3ccc(C(=O)N4CCC(C(O)c5ccccc5)CC4)cc3)CC2)ccc1O` (stereo not drawn), the melting point was determined as 120 °C.

For the molecule `O=C(C=Cc1cc(O)c(O)c([N+](=O)[O-])c1)c1ccccc1`, the melting point is 192 to 195 °C.

In turn, `NC(=O)C1Oc2cc(Cl)c(S(=O)(=O)c3ccc(Cl)cc3)cc2O1` (stereo not drawn) gave a melting point of 240 to 242 °C.

The molecule `Cc1ccccc1C(N)=CC#N` showed a melting point of 111 to 113 °C.

`CNC1CCN(c2ncc3ncnc(Nc4ccc(F)c(Cl)c4)c3n2)CC1`: the melting point lay in the range of 174 to 176 °C.

In turn, `CCC(=O)c1ccc(C(O)C(C)(C)C)cc1` (stereo not drawn) returned a melting point of 88 to 91 °C.

`CCC(CC)(COc1nn2ncnc2cc1C)CS(N)(=O)=O`: the melting point was 189 to 192 °C.

In turn, `COc1cc(-c2ccccc2C)cc2oc(=O)c(C)c(C)c12` gave a melting point of 145 °C.

With `Oc1ccc(-c2cc3cc(O)ccc3o2)cc1`, the melting point was in the range of 218 to 222 °C.

In turn, `COc1cc(Cl)c([N+](=O)[O-])cc1C(=O)NCCC(=O)O` gave a melting point of 170 to 172 °C.

In the case of `CC(C)(C)OC(=O)N1CCC(c2c[nH]c3ccc(N)cc23)CC1`, the melting point lay in the range of 205 to 207 °C.

As for `O=C1c2ccc(O)cc2CCN1CCN1CCCC1`, the melting point lay in the range of 205 to 207 °C.

`CN1CCN(c2nc3sc4c(NCc5ccco5)ncnc4c3c3c2COC(C)(C)C3)CC1`: the melting point was in the range of 166 to 168 °C.

On to `NC(=O)c1cccc(CCCBr)c1`, for which the melting point turned out to be 109 °C.

As for `c1cc(-c2cnco2)cc(-c2ncc(-c3cccc(-c4cnc(-c5cccc(-c6cnco6)c5)o4)n3)o2)c1`, the melting point lay in the range of 254 to 256 °C.

`O=C(O)CN1C(=O)[C@@H](N[C@@H](CCc2ccccc2)C(=O)O)COc2ccccc21` gave a melting point of 127 to 130 °C.

Turning to `Cc1ccc(-c2[nH]nc(COCCCO[N+](=O)[O-])c2-c2ccc(S(N)(=O)=O)cc2)cc1`, the melting point stood at 62 °C.

Molecule `CCOc1nn(-c2cc(C(F)(F)F)ccn2)cc1CCCOc1ccccc1CC(=O)O` displayed a melting point of 121 to 122 °C.

Turning to `N#CC12CCCC(C1)C1CCC2C1` (stereo not drawn), the melting point lay within 109 to 110 °C.

Regarding `CCCCCCCCCCOc1cnc(-c2ccc(C(C)O)cc2)nc1` (single isomer, unassigned; (+)), the melting point was in the range of 65 to 66 °C.

Molecule `COc1ccc(CSc2ccncc2)c2c1OCC2C` (stereo not drawn) yielded a melting point of 110 to 112 °C.

With `O=C1CC(=O)C(CCCCCCCO)C1=O` (stereo not drawn), the melting point fell in the range of 121 to 124 °C.

For `CN(C)C(=O)N1CCC(=NO)c2cc(F)ccc21`, the melting point was in the range of 147 to 150 °C.

Regarding `Cc1nc2ccccn2c(=O)c1CCN1CCc2oc3ccccc3c2C1`, the melting point was 186 °C.

In turn, `O=C(O)C(Cc1ccsc1)N1C(=O)c2ccccc2C1=O` (stereo not drawn) came in with a melting point of 162 to 165 °C.

The molecule `Nc1ccc(C(=O)c2nccs2)cc1[N+](=O)[O-]` registered a melting point of 179 to 181 °C.

Take `CCOC(=O)c1c(C=O)c2c(Cl)cc(Cl)cc2n1S(=O)(=O)c1ccccc1`: the melting point stood at 226 °C.

On to `CN1CCNC1=C(Cl)[N+](=O)[O-]`, for which the melting point lay within 145 to 146 °C.

`COC(=O)c1ccc2[nH]c(-c3ccc(OC)c4nc(C)ccc34)nc2c1` showed a melting point of 165 to 167 °C.

As for `CCOC(=O)Cn1ncc(CC)c1O`, the melting point lay in the range of 77 to 78 °C.

`CCC(CS(=O)(=O)c1ccc(-c2ccc(OC)cc2)cc1)N(O)C=O` (stereo not drawn) yielded a melting point of 199 to 200 °C.

`C[C@@H](NC(=O)c1ccc(-c2ccc(Cl)cc2)o1)[C@](O)(Cn1cncn1)c1ccc(F)cc1F` returned a melting point of 218 to 219 °C.

Turning to `Fc1ccc(SC(F)(F)C(F)(F)C(F)(F)C(F)(F)C(F)(F)C(F)(F)C(F)(F)C(F)(F)Sc2ccc(F)cc2)cc1`, the melting point was 60 to 61 °C.

On to `COc1cc2cc(C=O)c(Cl)nc2cc1F`, for which the melting point was 180 °C.

Regarding `COc1ccccc1N1CCN(CCc2[nH]c(=O)[nH]c2-c2ccc(F)cc2)CC1`, the melting point was in the range of 213 to 214 °C.

On to `Cn1nc2c(-c3ccc(Cl)cc3Cl)cccc2c1-n1ccnc1`, for which the melting point is 63 to 89 °C.

`COc1cc2c(=O)n(CCOCCO)c3c4cc5c(cc4ncc3c2cc1OC)OCO5` displayed a melting point of 235 °C.

For the molecule `CCOC(=O)c1cc2cc(OC)c(OC)cc2s1`, the melting point lay in the range of 84 to 85 °C.

As for `CN(C)Cc1nc(C(=O)O)nn1-c1ccc(Cl)cc1C(=O)c1ccccc1`, the melting point was 160 to 165 °C.

`CC(C)CCCC(C)C1C(O)CC2C3=CC=C4C(C)(C)C(O)CCC4(C)C3CCC21C` (stereo not drawn) gave a melting point of 171 to 173 °C.

`Cc1nc(N)c2nc(C)n(NC3CCOCC3)c2c1C` registered a melting point of 240 to 242 °C.

Molecule `NC(=O)c1occc1C(=O)NC1CCN(Cc2ccc3ccccc3c2)CC1` gave a melting point of 157 to 159 °C.

Take `CC1=CC(OC(=O)c2ccc(N)c(N)c2)C(O)C(C)(C)CC1=O` (stereo not drawn): the melting point lay in the range of 136 to 137 °C.

As to `CCNC(=O)N(O)CC#Cc1cccc(C2=N[C@H](c3ccccc3)CO2)c1`, the melting point was in the range of 141 to 143 °C.

Regarding `Cc1c(OCC(F)(F)F)ccnc1CSc1nc2cc(N3CCN(C)CC3)c(F)cc2[nH]1`, the melting point lay in the range of 109 to 110 °C.

Molecule `ClCCCCCCOc1ccc(C2=C(c3ccccc3)CCCc3cc(OC4CCCCO4)ccc32)cc1` (stereo not drawn) had a melting point of 84 to 86 °C.

Consider `CC(C)(C)c1ccc(S(=O)(=O)/C=C/c2ccccc2)cc1`, for which the melting point came out at 95 °C.

`O=C1Cc2cccc(CNC(=O)C3Cc4ccccc4N3S(=O)(=O)c3ccc(-c4cccc(C(F)(F)F)c4)cc3)c2N1` (stereo not drawn) registered a melting point of 50 °C.

Regarding `CCCc1nn(-c2ccc(C(F)(F)F)cn2)cc1CCCOc1ccccc1CCC(=O)O`, the melting point was 87 to 88 °C.

On to `O=C(NC1C2CC3CC(C2)CC1C3)C1CCCCN1Cc1ccccn1` (stereo not drawn), for which the melting point is 126 to 127 °C.

Take `CCC(C)S(=O)(=O)NN(CCC(=O)O)C(=O)c1ccc2nc(CCC3CCNCC3)[nH]c2c1` (stereo not drawn): the melting point lay within 180 to 185 °C.

In turn, `CCCCCS(=O)(=O)NC(=O)/C=C/c1cc(C2CC2)nn1Cc1ccc(C(F)(F)F)cc1Cl` returned a melting point of 139 to 140 °C.

`N#CC(N=C(c1ccccc1)c1ccccc1)c1ncc(C(F)(F)F)cc1Cl` (stereo not drawn) had a melting point of 105 to 108 °C.

For orientation: melting point means the temperature, or range, at which the solid turns liquid.
